Read-outs that look alike come from different tables or passages of the source.
Experiments:
Format in all cases: cell-based
[1] = system: Aspergillus niger; experiment: Minimum Inhibitory Concentration (MIC) on nutrient agar petri dishes
Description: (§1) The term synergism is used when the action of a combination of antimicrobial substances is being evaluated.
(§2) The synergism found for the mixtures according to the invention can be determined via the following mathematical mathematical formula (cf. F. C. Kull, P. C. Elisman, H. D.
(§3) Qa=amount of component A in the active substance mixture which achieves the desired effect, i. e. no microbial growth,
(§4) QA=amount of component A which, when used alone, suppresses the growth of the microorganisms,
(§5) Qb=amount of component B in the active substance mixture which suppresses the growth of the microorganisms,
(§6) QB=amount of component B which, when used alone, suppresses the growth of the microorganisms
(§7) If the sum of the ratios for a mixture Qa/QA+Qb/QB=1, additivity is indicated; if it is <1, synergism has occurred; a value of >1 is indicative of antagonism.
(§8) To determine the antimicrobial efficacy and synergy of active ingredients mixtures, the Minimum Inhibitory Concentration (MIC) of the active substances and their respective combinations were determined. The Minimum Inhibitory
(§9) Concentration of a given antimicrobial compound or mixture is the lowest concentration expressed in […] (ppm) that under defined in vitro conditions inhibits the growth of a given micro-organism (for example bacteria, mould fungi, yeasts). The growth of the microorganisms is observed on petri dishes containing a defined nutrient agar. In the case of fungi, typical strains according to this test design for example would be species like those as indicated in tables 1a) and 1b)

[2] = system: Fusarium solani; experiment: as above
Description: as §1, §2, §3, §4, §5, §6, §7, §8, §9

[3] = system: Fungi Mix composed of the standard ASTM G 21-09 species; experiment: Gypsum board mould resistance, ASTM G 21-09 (core protection); details: for Observed growth rating, Fungi Mix: facing papers not treated, 4 weeks at 28-30° C.
Description: The fungicide mixtures as of the present invention and of the comparison example to be tested were made as follows: The respective actives were mixed in their respective weight ratio (see table 2) together with water and 1 wt. % dispersant Tristyrylphenol ethoxylate (in form of Soprophor® S 25), as thickener 0.1 wt. % of Xanthan gum and 1 wt. % wetting agent non-ionic EO/PO-Copolymer (in form of Pluronic 127 F), where the wt. % are based on the entire mixture and were homogenized with a high speed mixer (IKA Ultra Turrax Labor Dispergator) to give an aqueous suspension having a viscosity measured in accordance with CIPAC 192 method of 500-600 mPas and a particle size of the biocides of smaller than 30 μm measured in accordance with the CIPAC 187 method.
For examination of the antifungal performance of the inventive mixtures the various mixtures prepared above were tested. The testing directly made in gypsum boards provides realistic and practically relevant data for evaluation. To achieve such data, gypsum boards were produced in the laboratory. For this purpose, a typical slurry recipe as given below for board production is used.
The gypsum slurry is formed by mixing the dry components and the wet components together. The slurry is then mixed to achieve a homogeneous consistency. The fungicide mixtures as prepared above are then incorporated into the wet gypsum slurry respectively (total amount of actives in ppm see table 2) by adding and thoroughly mixing. For sandwiching the gypsum core, untreated cardboard (without fungicide) with a grammage of appr. 180 g/m^2 was used and after assembly of the plate the hand sheets are dried.
The mould resistance of the gypsum board samples was evaluated according to the test method ASTM G 21-09. Following to this method, the manufactured gypsum boards as described above and after having been cut to an adequate size are placed on an agarplate and superficially are spoiled with fungal spores for a determined period of time of at the most 4 weeks. The respective total amount of actives in ppm based in gypsum/plaster ([…]) can be seen in the table.
Spore suspensions are produced for each fungi (spore concentrations of approximately 10^6/ml). Organisms which are included in ASTM G 21 comprise Aspergillus niger (ATCC 9642), Aureobasidium pullulans (ATCC 15233) Chaetomium globosum (ATCC 6205), Gliocladium virens (ATCC 6459) and Penicillium pinophilium (ATCC 11797) (as pure culture but also as mixed inoculum), however any other fungi species known to be able to grow in gypsum boards may be used in addition or instead. Mineral agar (according to ASTM G21 of 2009) was used as growth media in the agar plates. Before inoculation the gypsum board hand sheets are cut into pieces of appr. 5×5 cm.
For every concentration level, 3 test pieces are used in the test. Each sample is placed in a separate petri dish and then inoculated with the fungi mixture. The samples are then incubated at 28-30° C. for 28 days. Pre-reading of the samples may be performed at approximately 10 days after inoculation. The activity of the treatments may be assessed visually, using a rating system of 0-4 for growth inhibition of fungal growth.
Results: The results as recorded after 4 weeks testing at 28-30° C. according to the requirements of test method ASTM G 21 are summarized in table 2.

| SMILES | MIC [1] [ppm] | MIC ([1]; read-out: MIC) [µg/mL] | MIC [2] [ppm] | MIC ([2]; read-out: MIC) [µg/mL] | Observed growth rating, Fungi Mix ([3]; 25 ppm on dry stucco in gypsum core) | Observed growth rating, Fungi Mix ([3]; 50 ppm on dry stucco in gypsum core) | Observed growth rating, Fungi Mix ([3]; 100 ppm on dry stucco in gypsum core) | Observed growth rating, Fungi Mix ([3]; 200 ppm on dry stucco in gypsum core) | Observed growth rating, Fungi Mix ([3]; 300 ppm on dry stucco in gypsum core) | Control of fungi growth on gypsum board (interpretation of Table 2) ([3]; tested concentration range 25-300 ppm, comparison with TBZ/PYM mixtures) |
| --- | --- | --- | --- | --- | --- | --- | --- | --- | --- | --- |
| Cc1cc(C)nc(Nc2ccccc2)n1 [PYM, pyrimethanil] | 500 | 250 | 1501 | 1000 |  |  |  |  |  |  |
| c1ccc2[nH]c(-c3cscn3)nc2c1 [TBZ, thiabendazole] |  |  |  | 250 | 4 (Heavy growth (60% to complete coverage)) | 4 (Heavy growth (60% to complete coverage)) | 4 (Heavy growth (60% to complete coverage)) | 4 (Heavy growth (60% to complete coverage)) | 3 (Medium growth (30 to 60%)) | not good enough |
